Measurements reported in patent US20250236608A1, “EGFR INHIBITORS” (Blueprint Medicines Corporation, priority 2022, published 2025).

Columns and labels:
EGFR L858R = EGFR L858R (Homo sapiens (Human), UniProt P00533, L858R); assay: Biochemical EGFR inhibition assay, EGFR L858R; settings: Caliper mobility shift; 1.0 mM ATP or ATP Km; read-out: Enz EGFR_L858R IC50
EGFR (d746-750) = EGFR (d746-750) (Homo sapiens (Human), UniProt P00533, DEL746-750); assay: Biochemical EGFR inhibition assay, EGFR (d746-750); settings: Caliper mobility shift; 1.0 mM ATP or ATP Km; read-out: Enz EGFR_Exon19-del746-750 IC50
[1] = molecular target: pEGFR (Tyr1068) in PC-9 cells (Ex19Del) (Homo sapiens (Human), UniProt P00533, DEL746-750); assay: PC-9 pEGFR AlphaLISA assay; type: cell-based; settings: 4 hours incubation, p-EGFR (Tyr1068) AlphaLISA, read-out: Ext pEGFR_PC-9 Ex19Del IC50
In short: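 Readout: AlphaLISA SureFire Ultra signal in cell lysates, with acceptor beads for 1.5-2 h and donor beads overnight at room temperature in the dark. Beforehand, unstimulated cells in 10% FBS medium received compounds (10 points, 4-fold steps) for 4 h at 37° C. IC50 came from percent inhibition curves.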

Sequence of EGFR (d746-750) (P00533 other isoform, or with tags, fused parts or gaps del 1-694/del 746-750 limits assumed): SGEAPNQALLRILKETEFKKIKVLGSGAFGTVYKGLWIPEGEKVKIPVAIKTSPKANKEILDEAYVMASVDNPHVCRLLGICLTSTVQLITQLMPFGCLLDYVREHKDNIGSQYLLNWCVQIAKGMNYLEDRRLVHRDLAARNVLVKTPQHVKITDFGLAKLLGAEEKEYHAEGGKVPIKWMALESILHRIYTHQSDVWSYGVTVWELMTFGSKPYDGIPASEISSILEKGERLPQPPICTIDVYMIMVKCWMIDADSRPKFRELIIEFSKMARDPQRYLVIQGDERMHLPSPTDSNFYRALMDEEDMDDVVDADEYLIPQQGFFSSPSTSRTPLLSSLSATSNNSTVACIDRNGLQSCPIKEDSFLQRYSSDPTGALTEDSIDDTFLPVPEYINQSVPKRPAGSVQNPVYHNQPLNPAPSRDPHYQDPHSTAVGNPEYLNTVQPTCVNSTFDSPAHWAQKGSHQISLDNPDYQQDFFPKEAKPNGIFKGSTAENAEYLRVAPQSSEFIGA
Sequence of pEGFR (Tyr1068) in PC-9 cells (Ex19Del) (P00533 other isoform, or with tags, fused parts or gaps del 746-750): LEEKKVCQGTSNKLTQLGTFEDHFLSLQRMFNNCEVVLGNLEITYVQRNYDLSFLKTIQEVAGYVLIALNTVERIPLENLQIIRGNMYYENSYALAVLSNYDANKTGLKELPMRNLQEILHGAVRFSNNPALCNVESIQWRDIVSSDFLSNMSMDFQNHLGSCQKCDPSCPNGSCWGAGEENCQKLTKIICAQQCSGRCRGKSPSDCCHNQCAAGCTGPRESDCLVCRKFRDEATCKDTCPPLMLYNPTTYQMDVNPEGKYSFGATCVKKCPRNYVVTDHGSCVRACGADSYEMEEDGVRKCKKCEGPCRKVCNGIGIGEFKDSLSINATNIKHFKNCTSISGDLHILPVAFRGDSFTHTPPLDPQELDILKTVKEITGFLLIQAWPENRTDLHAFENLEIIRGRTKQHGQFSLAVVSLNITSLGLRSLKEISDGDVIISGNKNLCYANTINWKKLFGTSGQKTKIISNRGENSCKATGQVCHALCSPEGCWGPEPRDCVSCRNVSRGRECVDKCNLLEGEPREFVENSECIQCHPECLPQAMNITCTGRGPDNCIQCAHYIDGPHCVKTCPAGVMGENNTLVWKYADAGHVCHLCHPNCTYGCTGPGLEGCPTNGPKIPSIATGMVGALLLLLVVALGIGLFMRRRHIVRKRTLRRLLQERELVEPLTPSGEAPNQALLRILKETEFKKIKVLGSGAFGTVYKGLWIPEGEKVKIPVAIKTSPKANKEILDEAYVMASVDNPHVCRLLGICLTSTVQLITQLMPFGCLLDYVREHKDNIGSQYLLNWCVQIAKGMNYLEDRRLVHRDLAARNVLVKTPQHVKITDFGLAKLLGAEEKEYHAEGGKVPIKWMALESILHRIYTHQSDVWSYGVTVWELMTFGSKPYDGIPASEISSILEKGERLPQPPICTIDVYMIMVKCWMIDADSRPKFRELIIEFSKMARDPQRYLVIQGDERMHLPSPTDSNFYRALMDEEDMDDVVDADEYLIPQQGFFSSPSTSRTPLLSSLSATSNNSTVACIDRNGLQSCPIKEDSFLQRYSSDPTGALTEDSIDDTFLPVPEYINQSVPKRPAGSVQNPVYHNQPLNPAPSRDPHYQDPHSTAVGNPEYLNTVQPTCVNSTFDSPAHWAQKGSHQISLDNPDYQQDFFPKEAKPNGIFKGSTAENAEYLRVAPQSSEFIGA
Sequence of EGFR L858R (P00533 25-1210 L858R): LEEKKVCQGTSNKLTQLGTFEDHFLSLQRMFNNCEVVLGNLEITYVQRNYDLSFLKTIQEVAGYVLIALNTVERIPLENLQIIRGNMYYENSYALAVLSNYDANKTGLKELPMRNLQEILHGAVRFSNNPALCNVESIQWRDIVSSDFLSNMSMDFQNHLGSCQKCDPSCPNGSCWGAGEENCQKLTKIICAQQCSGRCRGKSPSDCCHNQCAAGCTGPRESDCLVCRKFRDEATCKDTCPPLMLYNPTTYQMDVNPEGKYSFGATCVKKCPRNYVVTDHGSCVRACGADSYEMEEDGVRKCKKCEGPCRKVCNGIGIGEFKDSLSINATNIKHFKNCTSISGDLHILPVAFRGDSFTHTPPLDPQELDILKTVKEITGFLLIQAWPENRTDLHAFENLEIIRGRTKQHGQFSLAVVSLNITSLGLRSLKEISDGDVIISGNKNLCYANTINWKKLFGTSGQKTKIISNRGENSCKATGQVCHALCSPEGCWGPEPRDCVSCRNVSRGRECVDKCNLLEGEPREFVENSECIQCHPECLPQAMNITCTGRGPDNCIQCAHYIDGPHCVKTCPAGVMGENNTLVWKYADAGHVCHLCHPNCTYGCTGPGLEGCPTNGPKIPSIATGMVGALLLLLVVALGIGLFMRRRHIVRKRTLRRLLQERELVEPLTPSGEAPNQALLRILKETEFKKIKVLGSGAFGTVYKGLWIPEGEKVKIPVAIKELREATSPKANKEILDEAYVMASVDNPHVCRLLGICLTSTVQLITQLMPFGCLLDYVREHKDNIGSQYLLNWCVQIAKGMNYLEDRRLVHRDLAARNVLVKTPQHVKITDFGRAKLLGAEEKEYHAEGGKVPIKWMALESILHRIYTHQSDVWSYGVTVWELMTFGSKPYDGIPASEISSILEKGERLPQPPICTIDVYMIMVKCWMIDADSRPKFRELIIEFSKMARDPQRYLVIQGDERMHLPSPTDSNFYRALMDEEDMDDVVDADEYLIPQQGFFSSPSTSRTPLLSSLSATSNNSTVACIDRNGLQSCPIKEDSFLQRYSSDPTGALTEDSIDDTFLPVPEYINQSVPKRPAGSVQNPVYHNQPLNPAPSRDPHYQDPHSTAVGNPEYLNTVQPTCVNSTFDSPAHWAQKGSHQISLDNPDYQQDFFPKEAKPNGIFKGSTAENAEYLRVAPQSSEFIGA

Row | Structure (SMILES) | IC50 (EGFR L858R) [nM] | IC50 (EGFR (d746-750)) [nM] | IC50 [1] [nM]
1 | COc1cc2ncnc(-c3cn(C)nc3-c3ccccc3)c2cc1NC(=O)[C@@]1(C)CCCO1 (single isomer, unassigned) [Example 259, (R)—N-(7-methoxy-4-(1-methyl-3-phenyl-1H-pyrazol-4-yl)quinazolin-6-yl)-2-methyltetrahydrofuran-2-carboxamide or (S)—N-(7-methoxy-4-(1-methyl-3-phenyl-1H-pyrazol-4-yl)quinazolin-6-yl)-2-methyltetrahydrofuran-2-carboxamide] | 2.6 | 1.1 | 4.2
2 | COc1cc2ncnc(-c3cn(C)nc3-c3ccccc3)c2cc1NC(=O)[C@H](C)N(C)C (single isomer, unassigned) [Example 236, (S)-2-(dimethylamino)-N-(7-methoxy-4-(1-methyl-3-phenyl-1H-pyrazol-4-yl)quinazolin-6-yl) propenamide or (R)-2-(dimethylamino)-N-(7-methoxy-4-(1-methyl-3-phenyl-1H-pyrazol-4-yl)quinazolin-6-yl) propenamide] | 3.8 | 1.4 | 3.9
3 | COc1cc2ncnc(-c3cn(C)nc3-c3ccccc3)c2cc1NC(=O)N1C[C@@H](C)N(C)C[C@@H]1C [Example 182, (2S,5R)—N-(7-methoxy-4-(1-methyl-3-phenyl-1H-pyrazol-4-yl)quinazolin-6-yl)-2,4,5-trimethylpiperazine-1-carboxamide] | 4.1 | 1.8 | 5.2
4 | COc1cc2ncnc(-c3cn(C)nc3-c3ccccc3)c2cc1NC(=O)[C@@H]1CCCN1C (single isomer, unassigned) [Example 243, (R)—N-(7-methoxy-4-(1-methyl-3-phenyl-1H-pyrazol-4-yl)quinazolin-6-yl)-1-methylpyrrolidine-2-carboxamide or (S)—N-(7-methoxy-4-(1-methyl-3-phenyl-1H-pyrazol-4-yl)quinazolin-6-yl)-1-methylpyrrolidine-2-carboxamide] | 4.9 | 2.4 | 4.4
5 | CN(C)C12CC(C(=O)Nc3nc4c(-c5cn(C)nc5-c5ccc(F)cc5)ncnc4cc3OC3CC3)(C1)C2 [Example 461, N-{7-cyclopropoxy-4-[3-(4-fluorophenyl)-1-methyl-1H-pyrazol-4-yl]pyrido[3,2-d]pyrimidin-6-yl}-3-(dimethylamino) bicyclo[1.1.1]pentane-1-carboxamide] | 12.7 | 2.9 | 7.2
6 | COc1cc2ncnc(-c3cn(C(F)(F)F)nc3-c3ccccc3)c2cc1NC(=O)C12CC(C1)C2 [Example 484, N-(7-methoxy-4-(3-phenyl-1-(trifluoromethyl)-1H-pyrazol-4-yl)quinazolin-6-yl)bicyclo[1.1.1]pentane-1-carboxamide] | 48.7 | 13.4 | 184

Stronger by IC50 (EGFR L858R), values ahead:

Row | IC50 (EGFR L858R) [nM] | IC50 (EGFR (d746-750)) [nM] | IC50 [1] [nM] | Structure (SMILES)
7 | 2.3 | 1.6 | 2.1 | CCn1cc(-c2ncnc3cc(OC)c(NC(=O)c4cccnc4)cc23)c(-c2ccccc2)n1 [Example 332, N-(4-(1-ethyl-3-phenyl-1H-pyrazol-4-yl)-7-methoxyquinazolin-6-yl) nicotinamide]
8 | 1.5 | 0.9 | 2.3 | COc1cc2ncnc(-c3cn(C)nc3-c3ccccc3F)c2cc1NC(=O)c1ccc(C2CC2)nc1 [Example 230, 6-cyclopropyl-N-(4-(3-(2-fluorophenyl)-1-methyl-1H-pyrazol-4-yl)-7-methoxyquinazolin-6-yl) nicotinamide]
9 | 1.4 | 0.9 | 2.1 | CCOc1cc2ncnc(-c3cn(C)nc3-c3ccccc3)c2cc1OC [Example 25, 7-ethoxy-6-methoxy-4-(1-methyl-3-phenyl-1H-pyrazol-4-yl)quinazoline]
